Test in all cases: MIC, liquid medium test tube series dilution test
One assay concerns E. coli 14. In kind it is cell-based. Particulars: E. coli 14, 24 hours, 37°C. Summed up:
(§1)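 Liquid-medium tube serial dilution in complete nutrient medium, read after 24 h incubation at 37°C. MIC is the lowest concentration giving a non-turbid tube, expressed in units/ml.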

A further assay deals with E. coli 183/58. It is filed as cell-based. To be noted: E. coli 183/58, 24 hours, 37°C. Summed up: as §1
In a further assay the test system is E. coli A 261. In kind it is cell-based. Particulars: E. coli A 261, 24 hours, 37°C. An outline of the steps:
as §1

The subject of a further assay is E. coli C 165. It is filed as cell-based. Particulars: E. coli C 165, 24 hours, 37°C. Summed up: as §1
For the next assay, the system named is Klebsiella 63. It is filed as cell-based. To be noted: Klebsiella 63, 24 hours, 37°C. An outline of the steps:
as §1

Another assay relates to Klebsiella K 10. In kind it is cell-based. To be noted: Klebsiella K 10, 24 hours, 37°C. An outline of the steps:
as §1

For assay [1], the system named is Streptoc. faec. ATCC 9790. In kind it is cell-based. Particulars: Strep. faec. (Enterococcus) ATCC 9790, 24 hours, 37°C. An outline of the steps: as §1
The subject of a further assay is Proteus vulg. 1017. It is filed as cell-based, Proteus vulgaris. To be noted: Proteus vulg. 1017, 24 hours, 37°C. An outline of the steps: as §1
The next assay concerns Proteus vulg. 3400. In kind it is cell-based, Proteus vulgaris. Particulars: Proteus vulg. 3400, 24 hours, 37°C. Summed up:
as §1

The next assay has as its system Psdm. aerug. Bonn. In kind it is cell-based, Pseudomonas aerug. To be noted: 24 hours, 37°C. An outline of the steps:
as §1

For the next assay, the system named is Psdm. aerug. Walter. It is filed as cell-based, Pseudomonas aerug. To be noted: 24 hours, 37°C. An outline of the steps: as §1
The subject of another assay is Staph. aureus 133. It is filed as cell-based, Staphylococcus aureus. To be noted: Staph. aureus 133, 24 hours, 37°C. An outline of the steps: as §1
The test system of the next assay is Staph. aureus 1777 E. It is filed as cell-based, Staphylococcus aureus. Particulars: 24 hours, 37°C. Summed up:
as §1

In the case of `CN(C(=O)N[C@@H](C(=O)N[C@@H]1C(=O)N2[C@@H]1SC(C)(C)[C@@H]2C(=O)O)c1ccccc1)C(=O)c1cccc(Cl)c1` [Example 117, Sodium D(-)-α-(3-m-chlorobenzoyl-3-methyl-ureido)-benzylpenicillin], the MIC is less than 0.78 units/ml against E. coli 14; 1.56 units/ml against E. coli 183/58; 50 units/ml with E. coli A 261; 1.56 units/ml in the assay on E. coli C 165; 12.5 units/ml in the assay with Klebsiella 63; 6.25 units/ml in the assay on Klebsiella K 10. Moreover, the MIC in assay [1] turned out to be 50 units/ml; in the assay on Proteus vulg. 1017 it was 3.12 units/ml; with Proteus vulg. 3400 it was 3.12 units/ml; against Psdm. aerug. Bonn it was 12.5 units/ml; with Psdm. aerug. Walter, 12.5 units/ml; against Staph. aureus 133, 0.8 units/ml. The MIC in the assay with Staph. aureus 1777 E came out at 12.5 units/ml.
`CC(=O)N(C)C(=O)NC(C(=O)N[C@@H]1C(=O)N2[C@@H]1SC(C)(C)[C@@H]2C(=O)O)c1ccc(C)cc1` (stereo partly drawn) [Example 118, Sodium α-(3-acetyl-3-methyl-ureido)-4-methylbenzylpenicillin]: the MIC against E. coli 14 was 12.5 units/ml; with E. coli 183/58, 200 units/ml; in the assay on E. coli A 261, greater than 400 units/ml; in the assay with E. coli C 165, 50 units/ml; against Klebsiella 63 it was 200 units/ml; against Klebsiella K 10 it was 100 units/ml. The MIC in assay [1] amounted to 50 units/ml; against Proteus vulg. 1017, 100 units/ml; in the assay with Proteus vulg. 3400, 200 units/ml; with Psdm. aerug. Bonn it was 200 units/ml; in the assay with Psdm. aerug. Walter, 200 units/ml; against Staph. aureus 133 it was 1.6 units/ml. The molecule also gave an MIC in the assay on Staph. aureus 1777 E of 100 units/ml.
On to `Cc1ccc(C(NC(=O)N(C)C(=O)N(C)C)C(=O)N[C@@H]2C(=O)N3[C@@H]2SC(C)(C)[C@@H]3C(=O)O)cc1` (stereo partly drawn) [Example 119, Sodium R,S-α-(3-dimethylaminocarbonyl-3-methyl-ureido)-4-methylbenzylpenicillin], for which the MIC in the assay on E. coli 14 is recorded as 25 units/ml; in the assay with E. coli 183/58 it was 400 units/ml; against E. coli A 261, greater than 400 units/ml; in the assay with E. coli C 165 it was 200 units/ml; in the assay on Klebsiella 63, greater than 400 units/ml; against Klebsiella K 10, 400 units/ml. Besides, the MIC was 100 units/ml in [1]; greater than 400 units/ml against Proteus vulg. 1017; greater than 400 units/ml against Proteus vulg. 3400; greater than 400 units/ml against Psdm. aerug. Bonn; greater than 400 units/ml with Psdm. aerug. Walter; 1.6 units/ml against Staph. aureus 133. Besides, the MIC in the assay on Staph. aureus 1777 E worked out at 200 units/ml.
Regarding `CC(=O)N(C)C(=O)NC(C(=O)N[C@@H]1C(=O)N2[C@@H]1SC(C)(C)[C@@H]2C(=O)O)c1ccc(Cl)cc1` (stereo partly drawn) [Example 121, Sodium R,S-α-(3-acetyl-3-methyl-ureido)-4-chlorobenzylpenicillin], the MIC is listed as 6 units/ml in the assay on E. coli 14; 100 units/ml against E. coli 183/58; greater than 400 units/ml with E. coli A 261; 50 units/ml against E. coli C 165; 100 units/ml in the assay with Klebsiella 63; 25 units/ml in the assay with Klebsiella K 10. In addition, the MIC in assay [1] is listed as 100 units/ml; in the assay on Proteus vulg. 1017, 100 units/ml; in the assay on Proteus vulg. 3400 it was 200 units/ml; against Psdm. aerug. Bonn it was 100 units/ml; against Psdm. aerug. Walter it was 100 units/ml; with Staph. aureus 133, less than 0.8 units/ml. For the same molecule, the MIC against Staph. aureus 1777 E was found to be 100 units/ml.
With `CC(=O)N(C)C(=O)NC(C(=O)N[C@@H]1C(=O)N2[C@@H]1SC(C)(C)[C@@H]2C(=O)O)c1cccs1` (stereo partly drawn) [Example 122, Sodium D,L-α-(3-acetyl-3-methyl-ureido)-α-thienyl(2)-methylpenicillin], the MIC is listed as 12.5 units/ml in the assay on E. coli 14; 200 units/ml in the assay on E. coli 183/58; greater than 400 units/ml in the assay on E. coli A 261; 50 units/ml in the assay with E. coli C 165; 100 units/ml against Klebsiella 63; 50 units/ml in the assay with Klebsiella K 10. Also, the MIC in [1] is recorded as 100 units/ml; with Proteus vulg. 1017, 100 units/ml; in the assay with Proteus vulg. 3400, 400 units/ml; in the assay with Psdm. aerug. Bonn, 200 units/ml; in the assay with Psdm. aerug. Walter, 400 units/ml; in the assay with Staph. aureus 133 it was 1.6 units/ml. The same molecule had an MIC against Staph. aureus 1777 E of 400 units/ml.
As to `CN(C(=O)N[C@@H](C(=O)N[C@@H]1C(=O)N2[C@@H]1SC(C)(C)[C@@H]2C(=O)O)c1ccccc1)C(=O)N1CCCCC1` [Example 123, Sodium D(-)-α-(3-[1-piperidyl]-carbonyl-3-methyl-ureido)-benzylpenicillin], the MIC against E. coli 14 is listed as 3.12 units/ml; with E. coli 183/58 it was 12.5 units/ml; with E. coli A 261, greater than 400 units/ml; in the assay with E. coli C 165, 25 units/ml; against Klebsiella 63, 100 units/ml; against Klebsiella K 10, 50 units/ml. Moreover, the MIC is 200 units/ml in assay [1]; 50 units/ml against Proteus vulg. 1017; 100 units/ml with Proteus vulg. 3400; 50 units/ml against Psdm. aerug. Bonn; 100 units/ml against Psdm. aerug. Walter; less than 0.8 units/ml against Staph. aureus 133. In the assay on Staph. aureus 1777 E, this molecule showed an MIC of 25 units/ml.
In the case of `CN(C(=O)N[C@@H](C(=O)N[C@@H]1C(=O)N2[C@@H]1SC(C)(C)[C@@H]2C(=O)O)c1ccccc1)C(=O)N1CCCC1` [Example 124, Sodium D(-)-α-(3-[1-pyrrolidyl]-carbonyl-3-methyl-ureido)-benzylpenicillin], the MIC was 3.12 units/ml in the assay with E. coli 14; 25 units/ml against E. coli 183/58; greater than 400 units/ml in the assay on E. coli A 261; 12.5 units/ml in the assay on E. coli C 165; 50 units/ml in the assay on Klebsiella 63; 50 units/ml in the assay on Klebsiella K 10. Further, the MIC in assay [1] is listed as 200 units/ml; with Proteus vulg. 1017, 50 units/ml; in the assay with Proteus vulg. 3400, 50 units/ml; against Psdm. aerug. Bonn, 50 units/ml; with Psdm. aerug. Walter, 100 units/ml; in the assay on Staph. aureus 133 it was less than 0.78 units/ml. Also, the MIC with Staph. aureus 1777 E was 25 units/ml.
`CN(C(=O)N[C@@H](C(=O)N[C@@H]1C(=O)N2[C@@H]1SC(C)(C)[C@@H]2C(=O)O)c1ccccc1)C(=O)N1CCOCC1` [Example 125, Sodium D(-)-α-(3-[4-morpholinyl]-carbonyl-3-methyl-ureido)-benzylpenicillin]: the MIC against E. coli 14 is listed as 3.12 units/ml; with E. coli 183/58 it was 50 units/ml; in the assay with E. coli A 261 it was greater than 400 units/ml; in the assay on E. coli C 165, 25 units/ml; against Klebsiella 63 it was 100 units/ml; in the assay on Klebsiella K 10, 200 units/ml. In addition, the MIC in assay [1] was 200 units/ml; in the assay with Proteus vulg. 1017 it was 50 units/ml; against Proteus vulg. 3400, 100 units/ml; in the assay with Psdm. aerug. Bonn it was 50 units/ml; in the assay on Psdm. aerug. Walter, 100 units/ml; in the assay on Staph. aureus 133 it was 3.12 units/ml. In addition, the MIC against Staph. aureus 1777 E is reported as 50 units/ml.

These data come from patent publication US3974140A, “Ureidoacetamido-penicillins” (Bayer Aktiengesellschaft, priority 1970, dated 1976).
